Each structure is given as a SMILES string. Where a SMILES comes first, the peptide text is derived from it.

The assay has as its target T1, angiotensin I converting enzyme (ACE) (Oryctolagus cuniculus, UniProt P12822).
T1 construct: ACE (from rabbit lung; 2.0 units/mg of protein); purchased Sigma Chemical Company (St. Louis, MO, USA); host or cells: rabbit lung (tissue-derived)
T1 sequence (P12822 34-1310): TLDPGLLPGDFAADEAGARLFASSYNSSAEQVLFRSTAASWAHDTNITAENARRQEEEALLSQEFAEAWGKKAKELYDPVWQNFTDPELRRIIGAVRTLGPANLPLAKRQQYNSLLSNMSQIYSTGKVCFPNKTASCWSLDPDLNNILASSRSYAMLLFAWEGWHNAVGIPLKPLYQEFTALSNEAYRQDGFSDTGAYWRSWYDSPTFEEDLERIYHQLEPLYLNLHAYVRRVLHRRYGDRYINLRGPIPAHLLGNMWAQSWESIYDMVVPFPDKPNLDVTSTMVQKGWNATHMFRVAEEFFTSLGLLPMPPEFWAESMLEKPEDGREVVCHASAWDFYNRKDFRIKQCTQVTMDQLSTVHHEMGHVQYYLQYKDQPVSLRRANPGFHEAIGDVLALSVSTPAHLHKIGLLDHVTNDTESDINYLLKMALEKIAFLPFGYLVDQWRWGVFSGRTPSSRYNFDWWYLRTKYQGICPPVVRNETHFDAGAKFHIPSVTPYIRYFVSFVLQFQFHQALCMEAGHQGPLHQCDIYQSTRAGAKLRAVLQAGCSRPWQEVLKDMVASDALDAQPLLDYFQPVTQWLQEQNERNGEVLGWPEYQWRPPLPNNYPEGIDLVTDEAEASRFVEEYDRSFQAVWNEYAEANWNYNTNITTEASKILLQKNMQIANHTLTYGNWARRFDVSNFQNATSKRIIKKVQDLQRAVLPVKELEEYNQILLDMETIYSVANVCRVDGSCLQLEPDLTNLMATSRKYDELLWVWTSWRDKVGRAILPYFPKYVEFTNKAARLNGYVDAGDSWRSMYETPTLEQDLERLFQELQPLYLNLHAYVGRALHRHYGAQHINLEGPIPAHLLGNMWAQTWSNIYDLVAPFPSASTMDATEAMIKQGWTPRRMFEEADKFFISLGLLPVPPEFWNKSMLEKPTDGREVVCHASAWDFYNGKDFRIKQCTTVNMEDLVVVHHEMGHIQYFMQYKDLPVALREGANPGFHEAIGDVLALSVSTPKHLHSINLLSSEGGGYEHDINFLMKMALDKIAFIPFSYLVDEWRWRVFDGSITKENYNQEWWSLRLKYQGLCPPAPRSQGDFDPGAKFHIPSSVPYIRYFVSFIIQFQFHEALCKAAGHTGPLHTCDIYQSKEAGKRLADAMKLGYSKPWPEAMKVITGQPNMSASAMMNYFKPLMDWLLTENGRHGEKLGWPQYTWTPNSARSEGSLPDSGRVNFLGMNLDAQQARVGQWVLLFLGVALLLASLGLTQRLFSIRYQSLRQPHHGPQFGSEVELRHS
Kind of assay: ACE inhibitory activity (IC50 and inhibitory ratio IP). In kind it is biochemical. Conditions: ACE from rabbit lung. On the procedure:
Lizard fish was purchased from a local market in Nanning, China, during the fishing season. It was identified by engineer Cuican at Beihai Institute of Oceanology. Its muscle was rapidly separated, dried with hot air (90 °C) over 8 h, powdered, and then stored in the cryogenic refrigerator. Agarose (BR) and NiSO4·6H2O (AR) were purchased from Sinopharm Chemical Reagent Co., (Beijing, China). Iminodiacetic acid (IDA) was purchased from Sinopharm Chemical Reagent Co., Ltd. (Beijing, China). ACE (from rabbit lung; 2.0 units/mg of protein) and hippuryl-L-histidyl-L-leucine (HHL) were purchased from the Sigma Chemical Company (St. Louis, MO, USA). All other reagents used were of analytical grade.
The affinity column was equilibrated at a flow rate of 1.5 mL·min^−1 with PBS. […] Fractions with affinity for Ni^2+ ion were eluted and monitored at 280 nm. […] The ACE-inhibitory activity of these fractions were determined, and the inhibitory ratios (IP) were calculated according to Wu et al.. The concentrations of protein were measured by the UV method using a wavelength of 280 nm, and the protein recovery rate was calculated as follows: (1) R=m/M×100% • R—Recovery rate of protein, %; • m—Protein content of the sample eluted from IMAC (IMAC fractions), mg; • M—Protein content of the sample before treatment of IMAC chromatographic procedures, mg.

One may read the IC50 as the point on the concentration scale where inhibition reaches its midpoint. Turning to `N=C(N)NCCC[C@H](NC(=O)[C@H](Cc1ccc(O)cc1)NC(=O)[C@@H](N)CCCNC(=N)N)C(=O)N1CCC[C@H]1C(=O)O` [RYRP, Arg-Tyr-Arg-Pro] (H-RYRP-OH), the IC50 (ACE inhibition, HHL listed as material, inhibitory ratios calculated according to Wu et al. [22]) is 52 µM. Besides, the “IP% (inhibitory activity of fractions separated by RP-HPLC)” value (RP-HPLC fractions of F2 (Zorbax SB C18), inhibitory ratio according to Wu et al. [22], test concentration not given) is listed as 73.05%.

The record behind these values is article PMC5334609, “Separation and Characterization of Angiotensin I Converting Enzyme (ACE) Inhibitory Peptides from Saurida elongata Proteins Hydrolysate by IMAC-Ni^2+” (Marine Drugs, 2017).
